# Entries after “also recorded” stand apart in the source; their conditions may differ.
# Assays:
# MRSA = experiment: Kill or inhibit growth/proliferation; morphology, biofilm and growth disruption (Tables 5, 6); type: cell-based, Methicillin-resistant Staphylococcus aureus; set-up: key: A: Peptide aggregates; B: Less hyphal formation; Clumps; Diffuse clumps and small polyps; F: Diffuse growth; H: Thin; I: Growth inhibition; Microcolony formation; Rippled; Small polyps; Thick; W: Halo formation on top, microlonies on bottom; also: test concentration or dose not given here
# E. faecalis = experiment: as above; type: cell-based, Enterococcus faecalis; set-up: key: A: Peptide aggregates; B: Less hyphal formation; Clumps; Diffuse clumps and small polyps; F: Diffuse growth; H: Thin; I: Growth inhibition; Microcolony formation; Rippled; Small polyps; Thick; W: Halo formation on top, microlonies on bottom
# S. pneumoniae = experiment: as above; type: cell-based, Streptococcus pneumoniae; set-up: key: A: Peptide aggregates; B: Less hyphal formation; Clumps; Diffuse clumps and small polyps; F: Diffuse growth; H: Thin; I: Growth inhibition; Microcolony formation; Rippled; Small polyps; Thick; W: Halo formation on top, microlonies on bottom
# S. epidermidis = experiment: as above; type: cell-based, Staphylococcus epidermidis; set-up: key: A: Peptide aggregates; B: Less hyphal formation; Clumps; Diffuse clumps and small polyps; F: Diffuse growth; H: Thin; I: Growth inhibition; Microcolony formation; Rippled; Small polyps; Thick; W: Halo formation on top, microlonies on bottom
# E. coli = experiment: as above; type: cell-based, Escherichia coli; set-up: key: A: Peptide aggregates; B: Less hyphal formation; Clumps; Diffuse clumps and small polyps; F: Diffuse growth; H: Thin; I: Growth inhibition; Microcolony formation; Rippled; Small polyps; Thick; W: Halo formation on top, microlonies on bottom; also: test concentration or dose not given here
# [1] = system: microorganisms (e.g., bacteria, yeasts, fungi); experiment: Targeting peptide binding to target microorganisms (Table 3); conditions: microorganism(s) the targeting peptide binds, preferably 1x PBS
# microorganisms = experiment: Peptides having multiple activities (targeting/binding, antimicrobial, growth or phenotype altering)
# Text: In certain embodiments, peptides described herein can have multiple activities. Thus for example, a peptide can have both binding/targeting activity and antimicrobial activity. Such peptides can be used, e.g., in a chimeric construct, for any or all of these properties. Thus, for example, a peptide designated “B” in Table 8 can be used as a targeting peptide. If it is also designated G or M it can also be used for antimicrobial activity.
# [2] = peptide binding conducted in aqueous buffers varied by peptide solubility
# For Organism, effect in this document: test concentration or dose not given here.
Substance,"Organism, effect (MRSA)","Organism, effect (E. faecalis)","Organism, effect (S. pneumoniae)","Organism, effect (S. epidermidis)","Organism, effect (E. coli)",Target(s) ([1]; binding in aqueous buffers depending on peptide solubility),Activities (microorganisms),"Target(s) [1, 2]"
KTPNDKIHKTIIIKHIIL [PF-533],MRSA (H),E. faecalis (C),S. pneumoniae (C),S. epidermidis (H),E. coli (R),–,–,–
PF-381: peptide having multiple activities (chain 1 QGANPCQQVGFTVNDPDCRLAKTV; chain 2 QGANPCQQVGFTVNDPDCRLAKTV; Peptide with targeting and/or antimicrobial activity),MRSA (C),E. faecalis (C),–,S. epidermidis (C),E. coli (R),E. coli; also recorded: P. aeruginosa; also recorded: C. jejuni,G B,–
PF-396: peptide having multiple activities (LIYTILASLGVLTVLQAILGREPKAVKA; Peptide with targeting and/or antimicrobial activity),MRSA (C),E. faecalis (C),–,S. epidermidis (S),E. coli (C),–,G B,S. epidermidis; also recorded: E. coli; also recorded: P. aeruginosa; also recorded: C. albicans; also recorded: E. faecalis; also recorded: C. jeikeium
PF-398: peptide having multiple activities (ILVVLAGILLVVLSYVGISKFKMNC; Peptide with targeting and/or antimicrobial activity),MRSA (C),E. faecalis (C),–,S. epidermidis (C),E. coli (C),–,G B,–
PF-399: peptide having multiple activities (FPIISALLGAIICIAIYSFIVNRKA; Peptide with targeting and/or antimicrobial activity),MRSA (C),E. faecalis (C),–,S. epidermidis (C),E. coli (C),–,G B,–
PF-401: peptide having multiple activities (YWLSRVTTGHSFAFEKPVPLSLTIK; Peptide with targeting and/or antimicrobial activity),MRSA (C),E. faecalis (C),–,S. epidermidis (C),E. coli (R),–,G B,S. epidermidis and E. coli and P. aeruginosa and MRSA and E. faecalis and C. jejuni
PF-410: peptide having multiple activities (FALELIALCRNLFIVYFP; Peptide with targeting and/or antimicrobial activity),MRSA (M),E. faecalis (C),–,S. epidermidis (C),E. coli (S),–,G B,–
PF-439: peptide having multiple activities (chain 1 RVLVLKKFHGIMDGNRNVAVFFVGQ; chain 2 RVLVLKKFHGIMDGNRNVAVFFVGQ; Peptide with targeting and/or antimicrobial activity),MRSA (M),E. faecalis (C),S. pneumoniae (R),S. epidermidis (C),E. coli (R),–,G B,–
PF-534 (KYFHLFYHNIIHYSKQHLSLKVDFKN; Peptide with targeting and/or antimicrobial activity),MRSA (C),E. faecalis (C),S. pneumoniae (R),S. epidermidis (C),E. coli (R),–,–,–

# Source: patent publication US20110039762A1, “TARGETED ANTIMICROBIAL MOIETIES” (C3 JIAN, INC., priority 2009, published 2011)
